Data: patent US9422308B2, “Derivatives of docosahexaenoylethanolamide and uses thereof” (The United States of America, as represented by the …, priority 2012, dated 2016)
Where “and” joins values, the source holds several entries; their conditions need not be identical. Identical values can stand only once. Like-named read-outs stand apart in the source and are kept apart here.

Experiment: pharmacokinetics, plasma and brain, after IP dose in mice
Type: in vivo
Conditions: male C57BL/6 mice; for half-life: read-out: Terminal t1/2 (converted)
Protocol: Each time point is […], with 11 time points=33 animals. Each time point was done in triplicate (N=3). The brain and plasma from each animal was analyzed.
Formulation preparation: • IP: 5% DMAC+5% Solutol HS15+90% Saline • 50 mg/kg, 10 mL/kg
Analytical method: • Instrument: LCMSMS-6 (Agilent 6410, triple quadrupole) • Matrix: Mouse plasma and brain homogenate • Analyte(s): NCGC00248435-03 • Internal standard(s): Diclofenac • MS conditions: Positive, ESI • MRM detection • NCGC00248435-03: [M+H]+m/z 400.3→72.2 • Diclofenac: [M+H]+m/z 296.0→214.0
(§1) For plasma samples: An aliquot of 30 μL plasma sample was added with 100 μL ACN (including Diclofenac, 50 ng/mL) for protein precipitation. The mixture was vortexed for 2 min and centrifuged at 12000 rpm for 5 min. The 8 μL supernatant was injected into LC-MS/MS for analysis.
as §1, with “For brain” for “For plasma”, “samples: Brain sample was homogenized for 2 min with 3 volumes (v/w) of homogenizing solution.” for “samples:”, “μL brain homogenate” for “μL plasma”
The IP dosing solution was prepared in 5% DMAC+5% SolutolHS15+90% Saline. Brain was homogenized with 3 volumes (v/w) of PBS (pH7.4) and then analyzed with LC-MS/MS. The Brain concentration was corrected with a dilution factor of 4 as following: Brain concentration=Brain homogenate conc.×4, assuming 1 g wet brain equals to 1 mL. BQL=Below quantifiable limit of 1 ng/mL for NCGC00248435-03 in male C57BL/6 plasma and brain homogenate samples. NA=Not available.

SMILES: CC/C=C\C/C=C\C/C=C\C/C=C\C/C=C\C/C=C\CCC(=O)NCC(C)(C)O [Compound 1, (4Z,7Z,10Z,13Z,16Z,19Z)—N-(2-hydroxy-2-methylpropyl)docosa-4,7,10,13,16,19-hexaenamide]
- concentration at 0.25 hr (male, C57BL/6, mouse, plasma, ip, 50 mg/kg, plasma, 0.25 hr, read-out: plasma concentration Mean): 5100 ng/mL and 12.8 µM
- concentration at 0.5 hr (male, C57BL/6, mouse, plasma, ip, 50 mg/kg, plasma, 0.5 hr, 3 animals, read-out: plasma Concentration Individual): 5960 ng/mL
- concentration at 0.5 hr (male, C57BL/6, mouse, plasma, ip, 50 mg/kg, plasma, 0.5 hr, read-out: plasma concentration Mean): 5790 ng/mL and 14.5 µM
- concentration at 1 hr (male, C57BL/6, mouse, plasma, ip, 50 mg/kg, plasma, 1 hr, 3 animals, read-out: plasma Concentration Individual): 4050 ng/mL
- concentration at 1 hr (male, C57BL/6, mouse, plasma, ip, 50 mg/kg, plasma, 1 hr, read-out: plasma concentration Mean): 3960 ng/mL and 9.91 µM
- concentration at 2 hr (male, C57BL/6, mouse, plasma, ip, 50 mg/kg, plasma, 2 hr, 3 animals, read-out: plasma Concentration Individual): 1130 ng/mL
- concentration at 2 hr (male, C57BL/6, mouse, plasma, ip, 50 mg/kg, plasma, 2 hr, read-out: plasma concentration Mean): 1020 ng/mL and 2.56 µM
- concentration at 3 hr (male, C57BL/6, mouse, plasma, ip, 50 mg/kg, plasma, 3 hr, 3 animals, read-out: plasma Concentration Individual): 321 ng/mL
- concentration at 3 hr (male, C57BL/6, mouse, plasma, ip, 50 mg/kg, plasma, 3 hr, read-out: plasma concentration Mean): 275 ng/mL and 688 nM
- concentration at 4 hr (male, C57BL/6, mouse, plasma, ip, 50 mg/kg, plasma, 4 hr, read-out: plasma concentration Mean): 100 ng/mL and 250 nM
- concentration at 8 hr (male, C57BL/6, mouse, plasma, ip, 50 mg/kg, plasma, 8 hr, 3 animals, read-out: plasma Concentration Individual): 1.83 ng/mL
- concentration at 8 hr (male, C57BL/6, mouse, plasma, ip, 50 mg/kg, plasma, 8 hr, read-out: plasma concentration Mean): 2.11 ng/mL and 5 nM
- Kp (mouse, brain and plasma, IP 50 mg/kg, read-out: AUCbrain/AUCplasma): 1.05
- AUC(0-inf) (mouse, brain, IP 50 mg/kg): 8470 ng·h/mL
- Cmax (mouse, brain, IP 50 mg/kg): 4710 ng/mL
- Tmax (mouse, brain, IP 50 mg/kg): 30 min
- half-life (mouse, brain, IP 50 mg/kg): 47.6 min
- AUC(0-inf) (mouse, plasma, IP 50 mg/kg): 8080 ng·h/mL
- AUC(0-t) (mouse, plasma, IP 50 mg/kg): 8080 ng·h/mL
- Cmax (mouse, plasma, IP 50 mg/kg): 5790 ng/mL
- Tmax (mouse, plasma, IP 50 mg/kg): 30 min
- half-life (mouse, plasma, IP 50 mg/kg): 42.8 min
- plasma concentration Dose Normalized Mean (plasma, 0.083 hr, IP 50 mg/kg): 0.131
- plasma Concentration Individual (plasma, 0.083 hr, IP 50 mg/kg, 3 animals, listed as NCGC00248435-03, 50 mg/kg): 3063 ng/mL and 2707 ng/mL
- plasma concentration Dose Normalized Mean (plasma, 0.25 hr, IP 50 mg/kg): 0.255
- plasma Concentration Individual (plasma, 0.25 hr, IP 50 mg/kg, 3 animals, listed as NCGC00248435-03, 50 mg/kg): 4892 ng/mL and 3849 ng/mL
- plasma concentration Dose Normalized Mean (plasma, 0.5 hr, IP 50 mg/kg): 0.290
- plasma Concentration Individual (plasma, 0.5 hr, IP 50 mg/kg, 3 animals, listed as NCGC00248435-03, 50 mg/kg): 6378 ng/mL and 5036 ng/mL
- plasma concentration Dose Normalized Mean (plasma, 1 hr, IP 50 mg/kg): 0.198
- plasma Concentration Individual (plasma, 1 hr, IP 50 mg/kg, 3 animals, listed as NCGC00248435-03, 50 mg/kg): 4574 ng/mL and 3252 ng/mL
- plasma concentration Dose Normalized Mean (plasma, 2 hr, IP 50 mg/kg): 0.051
- plasma Concentration Individual (plasma, 2 hr, IP 50 mg/kg, 3 animals, listed as NCGC00248435-03, 50 mg/kg): 1064 ng/mL and 870 ng/mL
- plasma concentration Dose Normalized Mean (plasma, 3 hr, IP 50 mg/kg): 0.014
- plasma Concentration Individual (plasma, 3 hr, IP 50 mg/kg, 3 animals, listed as NCGC00248435-03, 50 mg/kg): 255 ng/mL and 249 ng/mL
- plasma concentration Dose Normalized Mean (plasma, 4 hr, IP 50 mg/kg): 0.005
- plasma Concentration Individual (plasma, 4 hr, IP 50 mg/kg, 3 animals, listed as NCGC00248435-03, 50 mg/kg): 78.4 ng/mL and 148 ng/mL and 72.9 ng/mL
- plasma concentration Dose Normalized Mean (plasma, 8 hr, IP 50 mg/kg): 0.000
- plasma Concentration Individual (plasma, 8 hr, IP 50 mg/kg, 3 animals, listed as NCGC00248435-03, 50 mg/kg): 2.94 ng/mL and 1.55 ng/mL
- plasma concentration Dose Normalized Mean (plasma, 12 hr, IP 50 mg/kg): BQL (Below quantifiable limit of 1 ng/mL for NCGC00248435-03 in male C57BL/6 plasma and brain homogenate samples)
- plasma concentration Mean (plasma, 12 hr, IP 50 mg/kg): BQL (Below quantifiable limit of 1 ng/mL for NCGC00248435-03 in male C57BL/6 plasma and brain homogenate samples)
- plasma Concentration Individual (plasma, 12 hr, IP 50 mg/kg, 3 animals): BQL (Below quantifiable limit of 1 ng/mL for NCGC00248435-03 in male C57BL/6 plasma and brain homogenate samples)
- plasma concentration Dose Normalized Mean (plasma, 24 hr, IP 50 mg/kg): BQL (Below quantifiable limit of 1 ng/mL for NCGC00248435-03 in male C57BL/6 plasma and brain homogenate samples)
- plasma concentration Mean (plasma, 24 hr, IP 50 mg/kg): BQL (Below quantifiable limit of 1 ng/mL for NCGC00248435-03 in male C57BL/6 plasma and brain homogenate samples)
- plasma Concentration Individual (plasma, 24 hr, IP 50 mg/kg, 3 animals): BQL (Below quantifiable limit of 1 ng/mL for NCGC00248435-03 in male C57BL/6 plasma and brain homogenate samples)
